Reference: patent publication US7223865B2, “Chromogenic compounds, and use thereof as enzyme substrates” (Biomerieux, priority 2003, dated 2007)

What was measured:
Assay type in all cases: cell-based
Escherichia coli (032) [1] = assay: L-alanine-aminopeptidase activity on gelled medium, Example 4; settings: 0.3 g/l, after the addition of HCl
Experimental: (§1) A gelled medium comprising L-Ala-2-MeOAPA or L-Ala-2,5-diMeOAPA is prepared as follows: 46.37 g of Columbia agar are added to 1 liter of distilled water and then autoclaved. This reaction medium is separated into two media of equivalent volume. Each of these media comprises, respectively: 0.3 g/l of L-Ala-2-MeOAPA, introduced by means of a stock solution in DMSO, and 0.3 g/l of L-Ala-2,5-diMeOAPA, also introduced by means of a stock solution in DMSO. Microorganisms derived from the applicant's collection were seeded onto each of the media, by delimitation as three dials, using a suspension at 0.5 McFarland. The dishes were incubated at 37° C. for 24 hours. The color of these colonies and also the intensity of this color were noted after the addition of HCl.

Citrobacter koseri (012) = assay: as above; settings: 0.3 g/l, after the addition of HCl
Experimental: as §1

[2] = tested on: Enterococcus faecalis (117); assay: as above; settings: for Color / Intensity: 0.3 g/l, after the addition of HCl
Experimental: as §1, with “The dishes were incubated at 37° C. for 24 hours.” left out

Proteus mirabilis (037) = assay: as above; settings: 0.3 g/l, after the addition of HCl
Experimental: as §1, with “The dishes were incubated at 37° C. for 24 hours.” left out

[3] = tested on: Streptococcus agalactiae (001); assay: as above; settings: 0.3 g/l, after the addition of HCl
Experimental: as §1, with “The dishes were incubated at 37° C. for 24 hours.” left out

[4] = tested on: Staphylococcus aureus (035); assay: as above; settings: 0.3 g/l, after the addition of HCl
Experimental: as §1, with “The dishes were incubated at 37° C. for 24 hours.” left out

[5] = tested on: Enterobacter cloacae (061); assay: as above; settings: 0.3 g/l, after the addition of HCl
Experimental: as §1, with “The dishes were incubated at 37° C. for 24 hours.” left out

[6] = tested on: Klebsiella pneumoniae (023); assay: as above; settings: 0.3 g/l, after the addition of HCl
Experimental: as §1, with “The dishes were incubated at 37° C. for 24 hours.” left out

Listeria innocua (036) [7] = assay: as above; settings: 0.3 g/l, after the addition of HCl
Experimental: as §1, with “The dishes were incubated at 37° C. for 24 hours.” left out

Candida albicans (077) = assay: as above; settings: 0.3 g/l, after the addition of HCl
Experimental: as §1, with “The dishes were incubated at 37° C. for 24 hours.” left out

[8] = tested on: Enterococcus faecalis (075); assay: L-alanine-aminopeptidase activity on gelled medium, Example 2; settings: for Intensity: scale 0 to 4
Experimental: (§2) A gelled medium comprising L-Ala-4-AP-10-AA as substrate is prepared as follows: 46.37 g of Columbia agar are added to 1 liter of distilled water and then autoclaved. The reaction medium is separated into three media of equivalent volume. Each of these media comprises, respectively, 0.1 g/l, 0.2 g/l, 0.4 g/l of L-Ala-4-AP-10-AA provided by means of a stock solution in DMSO.
(§3) Microorganisms derived from the applicant's collection were seeded onto each of the media, by delimitation as three dials, using a suspension at 0.5 McFarland. The dishes were incubated at 37° C. for 48 hours. The colonies formed were examined visually after incubation for 24 and 48 hours. The color of these colonies and also the intensity of this color were noted.
(§4) The results are expressed as color intensity, using an arbitrary scale range of from 0 to 4 as a basis.

Escherichia coli (032) [9] = assay: as above; settings: for Intensity: scale 0 to 4
Experimental: as §2, §3, §4

Candida albicans (056) = assay: as above
Experimental: as §2, §3, §4

Proteus mirabilis (103) = assay: as above; settings: for Intensity: scale 0 to 4
Experimental: as §2, §3, §4

[10] = tested on: Klebsiella pneumoniae (023); assay: as above; settings: for Intensity: scale 0 to 4
Experimental: as §2, §3, §4

Listeria innocua (036) [11] = assay: as above
Experimental: as §2, §3, §4

[12] = tested on: Streptococcus pyogenes (067); assay: as above
Experimental: as §2, §3, §4

[13] = tested on: Staphylococcus aureus (070); assay: as above
Experimental: as §2, §3, §4

Citrobacter koseri (090) = assay: as above; settings: for Intensity: scale 0 to 4
Experimental: as §2, §3, §4

COc1cc(-c2c3ccccc3nc3ccccc23)c(OC)cc1NC(=O)[C@H](C)N [L-Ala-2,5-diMeOAPA, L-alanyl-2,5-dimethoxyaminophenylacridine]
Color (Escherichia coli (032) [1]; 24 H): Yellow-orange | Intensity (Escherichia coli (032) [1]; 24 H): 1.5 | Color (Escherichia coli (032) [1]; 48 h): Yellow-orange | Intensity (Escherichia coli (032) [1]; 48 h): 2 | Color (Citrobacter koseri (012); 24 H): orange | Intensity (Citrobacter koseri (012); 24 H): 1 | Color (Citrobacter koseri (012); 48 h): Yellow-orange | Intensity (Citrobacter koseri (012); 48 h): 2.5 | Color ([2]; 24 H): Yellow-orange | Intensity ([2]; 24 H): 0.5 | Color ([2]; 48 h): Yellow-orange | Intensity ([2]; 48 h): 3 | L-alanine-aminopeptidase activity ([2]; after incubation for 48 hours): exhibits an activity | Color (Proteus mirabilis (037); 24 H): colorless | Intensity (Proteus mirabilis (037); 24 H): 0 | Color (Proteus mirabilis (037); 48 h): orange | Intensity (Proteus mirabilis (037); 48 h): 0.5 | Color ([3]; 24 H): colorless | Intensity ([3]; 24 H): 0 | Color ([3]; 48 h): colorless | Intensity ([3]; 48 h): 0 | Color ([4]; 24 H): colorless | Intensity ([4]; 24 H): 0 | Color ([4]; 48 h): colorless | Intensity ([4]; 48 h): 0 | Color ([5]; 24 H): Yellow-orange | Intensity ([5]; 24 H): 1.5 | Color ([5]; 48 h): Yellow-orange | Intensity ([5]; 48 h): 2 | Color ([6]; 24 H): orange | Intensity ([6]; 24 H): 1 | Color ([6]; 48 h): Yellow-orange | Intensity ([6]; 48 h): 2.5 | Color (Listeria innocua (036) [7]; 24 H): colorless | Intensity (Listeria innocua (036) [7]; 24 H): 0 | Color (Listeria innocua (036) [7]; 48 h): colorless | Intensity (Listeria innocua (036) [7]; 48 h): 0 | Color (Candida albicans (077); 24 H): colorless | Intensity (Candida albicans (077); 24 H): 0 | Color (Candida albicans (077); 48 h): colorless | Intensity (Candida albicans (077); 48 h): 0

C=CC[n+]1c2ccccc2c(-c2ccc(NC(=O)[C@H](C)N)cc2)c2ccccc21.[Cl-] [L-Ala-4-AP-10-AA, L-alanyl-9-(4-aminophenyl)-10-allylacridinium chloride]
Color ([8]; 0.1 g/l, 24 H): colorless | Color ([8]; 0.1 g/l, 48 h): colorless | Color ([8]; 0.2 g/l, 24 H): orange | Intensity ([8]; 0.2 g/l, 24 H): traces | Color ([8]; 0.2 g/l, 48 h): orange | Intensity ([8]; 0.2 g/l, 48 h): 0.5 | Color ([8]; 0.4 g/l, 24 H): orange | Intensity ([8]; 0.4 g/l, 24 H): traces | Color ([8]; 0.4 g/l, 48 h): orange | Intensity ([8]; 0.4 g/l, 48 h): 1 | Color (Escherichia coli (032) [9]; 0.1 g/l, 24 H): beige | Intensity (Escherichia coli (032) [9]; 0.1 g/l, 24 H): 0.5 | Color (Escherichia coli (032) [9]; 0.1 g/l, 48 h): beige | Intensity (Escherichia coli (032) [9]; 0.1 g/l, 48 h): 0.5 | Color (Escherichia coli (032) [9]; 0.2 g/l, 24 H): pink- | Intensity (Escherichia coli (032) [9]; 0.2 g/l, 24 H): 2 | Color (Escherichia coli (032) [9]; 0.2 g/l, 48 h): pink- | Intensity (Escherichia coli (032) [9]; 0.2 g/l, 48 h): 2 | Color (Escherichia coli (032) [9]; 0.4 g/l, 24 H): pink- | Intensity (Escherichia coli (032) [9]; 0.4 g/l, 24 H): 2.5 | Color (Escherichia coli (032) [9]; 0.4 g/l, 48 h): pink- | Intensity (Escherichia coli (032) [9]; 0.4 g/l, 48 h): 3 | Color (Candida albicans (056); 0.1 g/l, 24 H): colorless | Color (Candida albicans (056); 0.1 g/l, 48 h): colorless | Color (Candida albicans (056); 0.2 g/l, 24 H): colorless | Color (Candida albicans (056); 0.2 g/l, 48 h): colorless | Color (Candida albicans (056); 0.4 g/l, 24 H): colorless | Color (Candida albicans (056); 0.4 g/l, 48 h): colorless | Color (Proteus mirabilis (103); 0.1 g/l, 24 H): beige | Intensity (Proteus mirabilis (103); 0.1 g/l, 24 H): traces | Color (Proteus mirabilis (103); 0.1 g/l, 48 h): beige | Intensity (Proteus mirabilis (103); 0.1 g/l, 48 h): traces | Color (Proteus mirabilis (103); 0.2 g/l, 24 H): pink- | Intensity (Proteus mirabilis (103); 0.2 g/l, 24 H): 0.5 | Color (Proteus mirabilis (103); 0.2 g/l, 48 h): pink- | Intensity (Proteus mirabilis (103); 0.2 g/l, 48 h): 1 | Color (Proteus mirabilis (103); 0.4 g/l, 24 H): pink- | Intensity (Proteus mirabilis (103); 0.4 g/l, 24 H): 3 | Color (Proteus mirabilis (103); 0.4 g/l, 48 h): pink- | Intensity (Proteus mirabilis (103); 0.4 g/l, 48 h): 3 | Color ([10]; 0.1 g/l, 24 H): beige | Intensity ([10]; 0.1 g/l, 24 H): traces | Color ([10]; 0.1 g/l, 48 h): beige | Intensity ([10]; 0.1 g/l, 48 h): traces | Color ([10]; 0.2 g/l, 24 H): pink- | Intensity ([10]; 0.2 g/l, 24 H): 1 | Color ([10]; 0.2 g/l, 48 h): pink- | Intensity ([10]; 0.2 g/l, 48 h): 2 | Color ([10]; 0.4 g/l, 24 H): pink- | Intensity ([10]; 0.4 g/l, 24 H): 3 | Color ([10]; 0.4 g/l, 48 h): pink- | Intensity ([10]; 0.4 g/l, 48 h): 3.5 | Color (Listeria innocua (036) [11]; 0.1 g/l, 24 H): colorless | Color (Listeria innocua (036) [11]; 0.1 g/l, 48 h): colorless | Color (Listeria innocua (036) [11]; 0.2 g/l, 24 H): colorless | Color (Listeria innocua (036) [11]; 0.2 g/l, 48 h): colorless | Color (Listeria innocua (036) [11]; 0.4 g/l, 24 H): colorless | Color (Listeria innocua (036) [11]; 0.4 g/l, 48 h): colorless | Color ([12]; 0.1 g/l, 24 H): inhibited | Color ([12]; 0.1 g/l, 48 h): colorless | Color ([12]; 0.2 g/l, 24 H): inhibited | Color ([12]; 0.2 g/l, 48 h): colorless | Color ([12]; 0.4 g/l, 24 H): inhibited | Color ([12]; 0.4 g/l, 48 h): colorless | Color ([13]; 0.1 g/l, 24 H): inhibited | Color ([13]; 0.1 g/l, 48 h): inhibited | Color ([13]; 0.2 g/l, 24 H): inhibited | Color ([13]; 0.2 g/l, 48 h): inhibited | Color ([13]; 0.4 g/l, 24 H): inhibited | Color ([13]; 0.4 g/l, 48 h): inhibited | Color (Citrobacter koseri (090); 0.1 g/l, 24 H): beige | Intensity (Citrobacter koseri (090); 0.1 g/l, 24 H): 0.5 | Color (Citrobacter koseri (090); 0.1 g/l, 48 h): beige | Intensity (Citrobacter koseri (090); 0.1 g/l, 48 h): 0.5 | Color (Citrobacter koseri (090); 0.2 g/l, 24 H): pink- | Intensity (Citrobacter koseri (090); 0.2 g/l, 24 H): 1 | Color (Citrobacter koseri (090); 0.2 g/l, 48 h): pink- | Intensity (Citrobacter koseri (090); 0.2 g/l, 48 h): 2 | Color (Citrobacter koseri (090); 0.4 g/l, 24 H): pink- | Intensity (Citrobacter koseri (090); 0.4 g/l, 24 H): 3 | Color (Citrobacter koseri (090); 0.4 g/l, 48 h): pink- | Intensity (Citrobacter koseri (090); 0.4 g/l, 48 h): 3.5
